Laboratory results: the METLIN SMRT retention time set (Domingo-Almenara et al. 2019)

Assay: gradient 5% acetonitrile 3 min, to 50% in 2 min, to 85% in 15 min, held 3 min, 100 µL/min
Conditions: column: Zorbax Extend-C18 2.1 x 50 mm; eluents: water / acetonitrile, 0.1% formic acid
Method in brief: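 Over 3 months, pure standards in mixtures of ~100 molecules were run by HPLC coupled to a quadrupole time-of-flight mass spectrometer in positive and negative ionization mode. The column was a Zorbax Extend-C18 (2.1 × 50 mm, 1.8 μm) at 100 μL/min, eluted with water and acetonitrile each holding 0.1% formic acid, with 40 μL dead and 900 μL dwell volumes. Retention time was determined from adduct peaks chosen by software and checked manually.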

| Compound | RP-LC retention time [s] |
| --- | --- |
| O=C(CCS(=O)(=O)c1ccc(Cl)cc1)Nc1nccs1 | 679 |
| Cc1nn(-c2cc(N3CCCC3)ncn2)c(C)c1CCC(=O)NCc1ccco1 | 686 |
| O=C(Nc1nnc(Cc2cccs2)o1)c1ccc(S(=O)(=O)N2CCOCC2)cc1 | 691 |
| O=NN(CCCl)C(=O)NCc1ccc[n+]([O-])c1 | 587 |
| CCN1CCN(S(=O)(=O)c2cc(-c3nc(C(C)C)cs3)sc2C)CC1 | 744 |
| O=C(CCNc1c(-c2ccccc2)nc2cnccn12)NCc1cccs1 | 662 |
| CCCNC(=O)C(=O)NCc1n[nH]c(=O)c2ccccc12 | 627 |
| CC1CCN(C(=O)c2nnc(-c3ccc(S(=O)(=O)N4CCC(C)CC4)cc3)o2)CC1 | 1120 |
| Cn1c(=O)n(C)c2cc(S(=O)(=O)C3CCCCC3)c(NC(=O)C3CC3)cc21 | 814 |
| CCc1nc2cc(N3CCC(C(=O)NCCN4CCCC4)CC3)cnc2nc1CC | 600 |
| O=C(NC1CCN(c2cc(N3CCOCC3)cnn2)C1)C1CCCC1 (centres undefined) | 548 |
| Cc1ccc(C)c(NC(=O)Cn2c(C)nc3onc(C)c3c2=O)c1 | 800 |
| CC(C)C[C@@H](C(=O)N[C@H](C(=O)OC1CCCC1)c1ccccc1)[C@H](O)C(=O)NO | 822 |
| CCCn1cc(S(=O)(=O)NCc2ccccc2C(F)(F)F)c2cccnc21 | 988 |
| Cc1cc(C)cc(Nc2nc3ccncc3n(C(C)C)c2=O)c1 | 745 |
| COc1ccc(C(=O)Nc2cc(-c3cccnc3)no2)c(C)c1 | 760 |
| Brc1cccc(-c2nnc(Cc3nc(-c4ccccc4)no3)o2)c1 | 1080 |
| O=C([C@@H]1C[C@H](F)CN1C(=O)c1ccc(F)cc1)N1CCOCC1 | 608 |

| Compound | RP-LC retention time [s] |
| --- | --- |
| CCn1c(CCNC(=O)c2ccc(OC)nc2)nc2cccnc21 | 732 |
| CCOC(=O)c1sc(NC(=O)C2CCC2)nc1-c1ccccc1 | 1010 |
| Cc1nc(CC(=O)NCc2ccc(F)cc2F)sc1C(=O)NC1CC1 | 693 |
| COC(=O)c1ccc(-c2nc3cnccn3c2NC2CCCC2)cc1 | 877 |
| COc1ccc2c(c1)C1(CCN(C(=O)CCc3ccccc3)C1)C(=O)N2C (centres undefined) | 850 |
| Cc1ccc(NC(=O)CSc2ccc(N3CCCC(C(=O)NC4CC4)C3)nn2)c(C)c1 (centres undefined) | 625 |
| CCN(CC)C(=O)c1ccc2oc(CN3CCN(C(=O)NC4CCCC4)CC3)nc2c1 | 630 |
| CC(=O)N1CCCC1c1nc(C2CN(S(=O)(=O)C(C)C)C2)no1 (centres undefined) | 635 |
| CN(C)c1ccc(C(=O)N2CCC(c3cc(N)on3)CC2)cc1 | 614 |
| O=C([C@@H]1C[C@H](F)CN1C(=O)NCc1ccco1)N1CCCCC1 | 631 |
| CC(C)(C[C@@](O)(Cc1cc2ccncc2[nH]1)C(F)(F)F)c1cc(F)ccc1O | 790 |
| CN(CC1(C)CCOCC1)C(=O)c1ccc2ccccc2n1 | 727 |
| COc1ccc(OC)c(CNC(=O)c2cn3cccc(C)c3n2)c1 | 730 |
| COC(=O)c1[nH]c(C)c(C(=O)C(C)N(C(=O)c2ccc(C)cc2)C2CCCCC2)c1C (centres undefined) | 1050 |
| CC(C)(C)CC(=O)N1C[C@H]2C[C@H](C1)[C@H]1CCCC(=O)N1C2 | 654 |
| Cn1nnc2ccc(-c3noc(-c4cccc(Cl)c4)n3)cc21 | 1120 |
| COc1ccc(NC(=O)NCCCn2c(C(F)(F)F)nc3cccnc32)cc1OC | 708 |
| CCC(=O)N(C1CCOCC1)C1CCN(S(=O)(=O)c2ccccc2Cl)CC1 | 840 |

Other lines, results leading:

| RP-LC retention time [s] | Compound |
| --- | --- |
| 939 | O=S(=O)(c1ccc2nc(N3CCN(c4ccccc4F)CC3)ccc2c1)N1CCOCC1 |
| 985 | CCOC(=O)Cn1c(=O)c2c(nc3n2CC(C)CN3CCc2ccccc2)n(C)c1=O (centres undefined) |
| 603 | CC(C)c1nc2cccnc2n1CCN1CCN(C(=O)Nc2ccccc2Br)CC1 |
| 810 | O=C(Cn1nc2c(Oc3ccc(Cl)cc3)nccn2c1=O)NC1CCCC1 |
| 560 | O=C(C1COc2ccccc2O1)N1CCCN(C2CCN(CC3CC3)C2=O)CC1 (centres undefined) |
| 916 | O=C(Nc1ccccc1F)C1CCN(S(=O)(=O)c2cc(C(=O)N3CCCCCC3)cs2)CC1 |
| 681 | CCOC(=O)CCNC(=O)N1CCC(N2CCN(Cc3ccc(C)cc3)C(=O)C2=O)CC1 |
| 1270 | Cc1ccc(NC(=O)Cc2c(C)nn(-c3nc(-c4ccc(C)cc4)cs3)c2C)cc1 |
| 659 | O=C(NCc1ccc(F)cc1)C1CCN(c2cncnc2N2CCCC2)CC1 |
| 821 | CCN1CCN(c2cc(-c3nc(-c4cccc(F)c4)no3)c3ccccc3n2)CC1 |
| 720 | CN1CCn2cc(S(=O)(=O)Nc3ccc(Cl)cc3)cc2C1=O |
| 600 | Cc1nn(C)c(C)c1CNC(=O)c1cccc2[nH]cc(CN3CCCC3)c12 |
| 1420 | CCOc1ccccc1C(=O)N(CC)c1nc(-c2ccc(C)cc2)cs1 |
| 872 | O=C(NCc1ccc2c(c1)OCO2)C1CCCN(c2nccn3nc(-c4ccc(F)cc4)cc23)C1 (centres undefined) |
| 861 | O=C(CCc1ccccc1)Nc1ccc2c(c1)CCCN2C(=O)c1ccco1 |
| 1100 | COc1ccc(-c2cc3ccccc3[nH]2)cc1 |
| 792 | Cn1ncc2c3ccccc3n(CC(=O)NCc3ccc4c(c3)OCO4)c2c1=O |
| 766 | O=C(NCc1ccc2c(c1)OCO2)C1CC(=O)N(CCc2c[nH]c3ccc(F)cc23)C1 (centres undefined) |
| 902 | O=c1c(=O)n(-c2ccccc2)ccn1Cc1nc(-c2cccc(C(F)(F)F)c2)no1 |
| 823 | CCOCCCNC(=O)C(CC)n1nc(C)c2nn(-c3ccccc3)c(C)c2c1=O (centres undefined) |
| 589 | CCCNC(=O)Cn1c(CC)nc2c(c1=O)CN(Cc1ccccc1)CC2 |
| 720 | O=C(CN1CCC(c2nc(-c3ccc(F)cc3)no2)CC1)NCc1ccc2c(c1)OCO2 |
| 758 | NC(=O)c1oc2ccccc2c1NC(=O)C(=O)NCc1ccc2c(c1)OCO2 |
| 674 | CN1C(=O)C2(c3ccccc31)C(C(=O)Nc1ccc(Br)cc1F)CC1CCCN12 (centres undefined) |
| 793 | N=C(CC(O)COc1ccccc1-c1ccccc1)N1CCCCC1 (centres undefined) |
| 938 | O=c1c2scc(-c3ccc(Br)cc3)c2ncn1Cc1ccccn1 |
| 893 | Cc1cc2c(c(=O)n(-c3ccc(F)cc3)c(=O)n2CC(=O)N2CCCc3ccccc32)n1C |

| RP-LC retention time [s] | Compound |
| --- | --- |
| 821 | O=C(Nc1ccc(F)cc1)C(=O)c1ccc[nH]1 |
| 656 | O=C(c1cccs1)N1CCn2c(nnc2-c2ccccc2)C1 |
| 712 | O=C(CN1CCN(Cc2ccc(F)cc2)C1=O)NCc1ccc(N2CCOCC2)cc1 |
| 784 | Cc1cc(NC(=O)N2CCCC(Cn3cnc4cccnc43)C2)ccc1Br (centres undefined) |
| 1020 | COc1cccc(-c2nc(Cn3ccn4nc(-c5ccccc5)cc4c3=O)c(C)o2)c1OC |
| 619 | COc1ccccc1N1CCN(c2cc(C(=O)O)c3cc(NS(C)(=O)=O)ccc3n2)CC1 |
| 1020 | Cn1c(CNC(=O)CSc2nnc(-c3ccc4c(c3)OCO4)o2)nc2ccccc21 |
| 889 | CSc1ccc(-c2nc3ncccn3c2Nc2ccc(C)c(C)c2)cc1 |
| 662 | Cc1ccccc1NC(=O)Cn1cnc2c(c1=O)CCCC2 |
| 632 | CCc1nc(N)n(CC(=O)NCc2ccc(F)cc2F)c(=O)c1C |
| 685 | CC(C)n1nccc1-c1nnc(NC(=O)C2CC(=O)N(c3ccc(F)cc3)C2)o1 (centres undefined) |
| 994 | COCCCn1c(=O)c2ccccc2n(Cc2nc(-c3ccccc3)no2)c1=O |
| 755 | O=C(CCn1c(N2CCCC2)nc2ccsc2c1=O)NCc1ccc(F)cc1 |
| 703 | CCCNC(=O)C1CCCN(c2nc3ncn(CC(=O)Nc4ccc(C)cc4C)c(=O)c3s2)C1 (centres undefined) |
| 673 | O=C(c1cccs1)N1CCC(c2nncn2Cc2ccccc2)CC1 |
| 984 | CC(C)N1C(=O)C(C)(C(=O)NCc2ccc(F)cc2)Oc2cccnc21 (centres undefined) |
| 876 | CC(C)CCNC(=O)Cn1nc2c3cc(-c4ccc(F)cc4)nn3ccn2c1=O |
| 646 | Cc1c(Cl)ccc2c(=O)c3c([nH]c12)CCN(CC(=O)Nc1ccc2c(c1)OCCO2)C3 |
| 1450 | COc1cccc(C2Cn3nnc(-c4nc(-c5ccc(C(C)(C)C)cc5)no4)c3CO2)c1 (centres undefined) |
| 911 | COc1cccc(-c2noc(Cn3ccn(-c4cc(C)ccc4C)c(=O)c3=O)n2)c1 |
| 576 | O=C(C1CCCN(c2ccc(-c3ccccc3)nn2)C1)N1CCN(c2ccccn2)CC1 (centres undefined) |
| 983 | CCOc1cccc(C2c3[nH]c4ccccc4c3CCN2C(=O)COC)c1 (centres undefined) |
| 732 | Cc1cc2c(=O)n(CC(=O)NCc3ccccc3F)ccc2s1 |
| 731 | Cc1ccc(C(=O)NCc2nc(-c3ccc4c(c3)nnn4C)no2)cc1 |
| 687 | OC(CNCc1ccc(-c2ccc(F)cc2)o1)c1ccccc1 (centres undefined) |
| 837 | CCN1c2ccc(Cl)cc2C(=O)NC12CCN(C(=O)NCc1ccccc1)CC2 |
